Source: US4927817A, “Preventive and therapeutic agent against liver disorder” (Zeria Pharmaceutical Co., Ltd., priority 1986, dated 1990)
Entries after “also recorded” stand apart in the source; their conditions may differ.

Experiments:
[1] = tested on: liver disorder caused by carbon tetrachloride; test: prevention of experimental liver disorder in rat caused by carbon tetrachloride: serum GOT and GPT; format: in vivo, male Wistar rats; settings: for GOT (serum) / GPT (serum): CCl4 0.4 ml/kg oral 1 h after last dose, blood at 24 h; for GOT (serum): CCl4 + CMC control 2115.9 ± 260.2; for GPT (serum): CCl4 + CMC control 2243.8 ± 333.0
Description: (§1) Carnosine zinc salt was suspended in 0.5% sodium carboxymethyl cellulose (CMC) solution to prepare 60 mg/ml and 20 mg/ml suspensions. This was given to rats orally every day for 8 days at the rate of 0.5 ml/100 g so that the dosage was to be 300 mg/kg and 100 mg/kg, respectively. To the control group, the same volume of 0.5% CMC was given.
(§2) To prepare the model animals with liver disorder caused by carbon tetrachloride, carbon tetrachloride mixed in olive oil to have a 10% (V/V) mixture was given orally at the rate of 4 ml/kg (0.4 ml/kg as carbon tetrachloride) one hour after the final administration of carnosine zinc salt or 0.5% CMC. The animals were anesthetized by intraperitoneal injection of pentobarbital at 24 hours after carbon tetrachloride was given, and blood was collected from carotid arteries. The blood was centrifuged at 3000 rpm for 15 minutes to fractionate serum, and GOT and GPT were determined (Reitman Frankel and Momose modification).
For the experiment, male Wistar rats were used. With 10 rats in each group, they were divided into three groups: the group given with carbon tetrachloride (CCl4) and 0.5% CMC only (CCl4 +CMC), the group given with carbon tetrachloride and 300 mg/kg or 100 mg/kg of carnosine zinc salt (CCl4 +carnosine zinc salt) and the group given with 0.5% CMC only (CMC).

[2] = acute toxicity test, oral; format: in vivo, female and male Wistar rats
Text: In the acute toxicity test, female and male Wistar rats, each with body weight 150-200 g, were divided into the groups with 10 rats each, and 10 g/kg each of carnosine zinc salt was given orally.

[3] = tested on: hepatitis experimentally induced by carbon tetrachloride; test: carnosine zinc salt given after liver disorder had actually occurred (carbon tetrachloride hepatitis); format: in vivo, model animals; settings: CCl4 hepatitis
hepatic cells = test: histopathological examination of isolated liver (H-E staining) in rats given carbon tetrachloride; format: in vivo, male Wistar rats
Description: as §1, §2
From the isolated liver, the paraffined sections were prepared, stained by H-E staining and were examined by histopathological examination.
For the experiment, male Wistar rats were used. […]

[4] = 100 mg/kg oral daily for 8 days
[5] = 300 mg/kg oral daily for 8 days

## NCCC(=O)[N-][C@@H](Cc1c[nH]cn1)C(=O)[O-].[Zn+2] [carnosine zinc salt, L-carnosine zinc salt]
[1]; [4]
  GOT (serum): 2167.7 ± 777.5 KU
  GPT (serum): 1917.7 ± 748.6 KU
[1]; 300 mg/kg administration group, risk rate of 1%
  GPT and GOT in blood, statistical significance: significantly decreased at risk rate of 1%
[1]; [5]
  GOT (serum): 629.7 ± 121.2 KU
  GPT (serum): 427.7 ± 69.4 KU
[1]; given before liver disorder occurs, CCl4 hepatitis
  increase of hepatic enzymes in blood: effectively prevented
[1]; oral, depending upon the dosage, CCl4 rats
  increase of GPT and GOT in blood: significant decline in the increase of GPT and GOT in blood; also recorded: suppresses increase of GPT and GOT in blood, depending upon the dosage
[1]; oral, rat
  prevention of experimental liver disorder caused by carbon tetrachloride: effect of carnosine zinc salt to prevent the experimental liver disorder caused by carbon tetrachloride
[2]; 10 g/kg oral, observation for 7 days, female and male rats
  death in acute toxicity test: no case of death
[2]; oral
  acute toxicity: very weak toxicity; also recorded: extremely weak
[3]
  preventive effect when given after liver disorder had occurred: the same preventive effect was obtained
Hepatic cells; group given carnosine zinc salt, CCl4 rats
  necrosis of hepatic cells and fat formation: suppression of necrosis of hepatic cells and fat formation
Hepatic cells; improvement of liver disorder
  degree of necrosis of hepatic cells: reduction of the degree of necrosis of hepatic cells
